“Also recorded” adds a separate entry of the source.
Tested on: Arabidopsis seedlings (wild type Col-0, epi-line, Col-0/msh1 graft progeny)
Assay: 5-Azacytidine treatment and root length assay (methylation inhibition assay)
Format: in vivo
Conditions: 50 μM 5-azacytidine, half-strength MS plates, seedlings transferred 3 days post-germination, root lengths measured at ten days
Text: FIG. 27A-C. a, Distribution of msh1 SNPs and indels versus Col-0 across the genome. Each dot represents the number of SNPs and indels found in a window of 50 kbp. Note that the Y-axis has been synchronized with the maximum number found on chr4 to enable comparisons between chromosomes. The region 7,800,000-9,850,0000 bp on chr4, a likely introgressed segment from Ler, contains 8582 of the total 12,771 SNPs and indels. […] Paired-end genome-wide sequencing, alignment and de novo partial assembly of the chm1-1 genome produced 14,416 contigs (n50=40,761 bp) containing 118.5 Mbp; mapping these contigs against Col-0 covers 72 Mbp. Alignment of paired-end reads to the Col-0 public reference sequence produced 95% alignment and identified 12,771 SNPs and indels, with the one 2-Mbp interval, on chromosome 4, accounting for 8,582 and the second on Chromosome 3 accounting for 2200. […]
Treatment with azacytidine can be used to nullify methylation effects^42. […] Ten days after moving to growth chamber, plates were scanned and root lengths were measured using ImageJ. […]

`Nc1ncn([C@@H]2O[C@H](CO)[C@@H](O)[C@H]2O)c(=O)n1` [5-azacytidine] was tested, and the “effect on enhanced epi-line root length” value was “restoration of epi-F3 seedlings to wild type growth levels; also recorded: abolished”.
